Data on nine compounds can be found in PubChem BioAssay (NCI).

Holding throughout (test): NCI anticancer screen, dose series, 48 h
Assay [1] deals with NCI-H226 lung.
For assay [2], the system named is OVCAR-4 ovarian.
Assay [3] concerns MDA-MB-231 breast.
Assay [4] concerns M14 melanoma.
For assay [5], the system named is SW-620 colon.
Assay [6] relates to A549 NSCLC.
Assay [7] deals with UACC-257 melanoma.
The test system of assay [8] is HOP-92 NSCLC.
Assay [9] deals with COLO 205 colon.
The subject of assay [10] is SN12C renal.

Several values for one entry are separate records, joined by “and”; a condition that tells them apart may be missing. Equal entries are not always repeated.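 Each compound was tested at five concentrations against cells in 96-well plates for 48 hours. The concentration for 50% growth inhibition is given as GI50. Definition used: TGI = concentration required for complete inhibition of growth.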 Where only a bound is given, the exact number is not on record here.

For the compound `COc1cc2c3c(n(CCCNCC(OC)OC)c(=O)c2cc1OC)-c1cc2c(cc1C3=O)OCO2`, the GI50 in [1] was 6.63 µM; in [2] it was 20.1 µM; in assay [3] it was 3.09 µM; in assay [4] it was 0.345 µM; in assay [5] it was 2.05 µM; in assay [6] it was 11.2 µM. Further, the GI50 in assay [7] was 33.3 µM; in assay [8], 1.45 µM; in assay [9], 14 µM. Further, the TGI in [1] is 42.5 µM; in assay [2], 42.7 µM; in [3], 20 µM; in [4], more than 37.2 µM; in assay [5], 24.2 µM; in [6], 37.9 µM. Also, the results for the TGI in assay [7], in assay [8] and in [9] were more than 89.2 µM, 19.1 µM and more than 61.1 µM, respectively.
Consider `Cc1ccc(/C=C2/SC(Nc3nc(-c4nc(NC5=NC(=O)/C(=C\c6ccc(C)cc6)S5)sc4C)c(C)s3)=NC2=O)cc1`, for which the GI50 is 2.32 µM in assay [1]; 1.36 µM in assay [3]; 0.0642 µM in assay [4]; 0.957 µM in assay [10]; 0.714 µM in [5]; 1.37 µM in assay [6]. The GI50 was 1.04 µM in assay [7], 17.1 µM in [8] and 35.2 µM in [9]. Moreover, the TGI in assay [1] was more than 30.4 µM; in assay [3], 19.9 µM; in [4], 1.21 µM; in assay [10], 18.3 µM; in [5] it was more than 50 µM; in assay [6] it was more than 36.6 µM. The results for the TGI in assay [7], in assay [8] and in [9] were 20.5 µM, more than 47.8 µM and more than 50 µM, respectively.
`COC(C(=O)C(O)C(C)O)C1Cc2cc3cc(OC4CC(OC(C)=O)C(OC5CC(O)C(OC)C(C)O5)C(C)O4)cc(O)c3c(O)c2C(=O)C1OC1CC(OC2CC(OC3CC(C)(O)C(OC(=O)C(C)C)C(C)O3)C(O)C(C)O2)C(O)C(C)O1` (stereo not given): the TGI is 0.148 µM and 0.0893 µM in assay [1]; 0.551 µM in assay [3]; 0.257 µM and 0.0292 µM in [4]; 3.98 µM and 2.22 µM in assay [5]; 12.3 µM and 11.1 µM in [6]; 0.0977 µM and 0.0249 µM and < 0.0492 µM in [7]. Also, the TGI in [8] was 0.288 µM and 0.039 µM. The GI50 in [6] was 0.0328 µM and 0.00452 µM; in [7] it was 0.00348 µM and < 0.0155 µM; in assay [8] it was 0.0383 µM and 0.00429 µM.
Turning to `CCN(CCNc1ccc(C)c2sc3cc(Cl)ccc3c(=O)c12)CC(C)O` (stereo not given), the GI50 in [1] was 2.18 µM; in assay [2], 4.92 µM; in assay [3], 1.99 µM; in [4], 1.75 µM; in assay [10], 2.76 µM; in assay [5], 1.8 µM. The values for the GI50 in assay [6], in [8] and in assay [9] were 1.85 µM, 1.61 µM and 1.72 µM, respectively. Moreover, the TGI stood at 4.72 µM in assay [1]; 24.9 µM in assay [2]; 4.17 µM in assay [3]; 3.14 µM in assay [4]; 10.5 µM in assay [10]; 3.51 µM in assay [5]. Further, the TGI came out at 3.45 µM in assay [6], 4.28 µM in [8] and 3.24 µM in assay [9].
For `CN(CC(=O)O)c1ccc(/C=C/c2ccnc3ccccc23)cc1`, the TGI is more than 100 µM in [3]; 67.7 µM in assay [4]; 92.8 µM in assay [10]; more than 100 µM in assay [5]; 61.4 µM in [6]; 65.4 µM in assay [7]. The TGI in [8] was more than 100 µM; in [9] it was 34.3 µM.
With `CCN1CCN(CC(=O)Nc2nc3ccc(NCc4ccc(Cl)cc4)cc3s2)CC1`, the GI50 in assay [2] was 5.25 µM; in [3], 1.89 µM; in assay [4], 1.86 µM; in assay [10] it was 2.94 µM; in [5], 2.1 µM; in [6] it was 2.76 µM. Besides, the GI50 in [7] was 2.65 µM; in [8], 1.12 µM; in assay [9], 1.82 µM. For the same compound, the TGI in [2] turned out to be 90.6 µM; in assay [3], 4.02 µM; in assay [4], 3.63 µM; in assay [10], 11.9 µM; in assay [5], 4.78 µM; in assay [6] it was 8.01 µM. Also, the TGI turned out to be 6.86 µM in assay [7], 2.77 µM in [8] and 3.5 µM in [9].
For `CCCCCCC#Cc1ccccc1C#CCO`, the GI50 is 24.5 µM in assay [2]; more than 100 µM in assay [3]; 28.4 µM in assay [4]; 19.4 µM in [10]; 20.1 µM in assay [5]; 20.7 µM in assay [6]. For the same compound, the GI50 is 26.5 µM in [7], 13.8 µM in assay [8] and 17.2 µM in assay [9]. Further, the TGI in assay [2] was 81.6 µM; in assay [3], more than 100 µM; in [4], 74.9 µM; in assay [10], 39.7 µM; in [5] it was 38 µM; in [6] it was 49 µM. The TGI in [7] was 62.7 µM; in assay [8], 26.7 µM; in [9], 34 µM.
With `CC(C)(O)C1CCC(Nc2ccc3ncc(-c4cccc(C(F)(F)F)c4)n3n2)CC1` (stereo not given), the GI50 is 2.19 µM in [1]; 2.62 µM in [2]; 1.96 µM in assay [3]; 1.23 µM in [4]; 3.17 µM in assay [10]; 2.91 µM in [5]. In addition, the GI50 was 3.1 µM in [6] and 2.62 µM in [9]. The TGI in assay [1] came to 27 µM; in [2], 12.5 µM; in [3] it was 14 µM; in assay [4] it was 4.49 µM; in assay [10], 17 µM; in [5], 15 µM. Further, the TGI turned out to be 13.2 µM in assay [6] and 21.5 µM in assay [9].
With `COc1ccc(-c2cc(-c3ccccc3)nc(N3CCN(CCNc4ccnc5cc(Cl)ccc45)CC3)n2)cc1`, the GI50 in [1] was 4.14 µM; in [2], 1.87 µM; in assay [3] it was 1.81 µM; in assay [10], 1.64 µM; in assay [5], 1.73 µM; in assay [6], 1.9 µM. Moreover, the GI50 in [8] is 1.14 µM; in assay [9] it was 1.17 µM. In addition, the TGI was determined as 25.1 µM in assay [1]; 4.05 µM in assay [2]; 3.43 µM in assay [3]; 3.34 µM in assay [10]; 3.47 µM in [5]; 4.39 µM in [6]. In addition, the TGI in [8] amounted to 3.35 µM; in assay [9], 2.66 µM.
